In article PMC9610410, “Pelargonium sidoides Root Extract: Simultaneous HPLC Separation, Determination, and Validation of Selected Biomolecules and Evaluation of SARS-CoV-2 Inhibitory Activity” (Pharmaceuticals, 2022):
Like-named read-outs stand apart in the source and are kept apart here.

Assays:
SARS-CoV-2 [1] = experiment: microbe, parasite or virus in culture; format: cell-based; conditions: for IC50: Severe acute respiratory syndrome coronavirus 2, Vero C1008, SARS-CoV-2-induced cytopathic effect in Vero E6 cells; for Selectivity Index (SI): antiviral activity relative to cellular toxicity (CC50/IC50), Vero E6
[2] = MTT cytotoxicity assay against normal cell line (Vero E6); conditions: African green monkey, Vero E6 cells
SARS-CoV-2 [3] = system: SARS-CoV-2; set-up: method as in PMID 34214752; conditions: cited from earlier work; for IC50: SARS-CoV-2 in Vero E6 cells, positive controls reported by the same laboratory
in vitro = conditions: African green monkey
Vero E6 cells = conditions: positive controls reported by the same laboratory; cited from earlier work

Structure (SMILES)	IC50 (SARS-CoV-2 [1]) [µM]	Selectivity Index (SI) (SARS-CoV-2 [1])	CC50 [2] [µM]	IC50 (SARS-CoV-2 [3]) [µM]	CC50 (in vitro) [µM]	Selectivity Index (SI) (SARS-CoV-2 [3]; positive controls)	CC50 (Vero E6 cells) [µM]
Oc1cc(O)c2c(c1)O[C@H](c1ccc(O)c(O)c1)[C@@H](O)C2 [Catechin, (+)−catechin]	58.55 ± 0.088	0.9	52.76 ± 0.079	–	–	–	–
CCN(CC)CCCC(C)Nc1ccnc2cc(Cl)ccc12 (stereo not shown) [Chloroquine]	–	–	–	22.7	–	–	–
O=C(O)c1cc(O)c(O)c(O)c1 [Gallic acid, 3,4,5-trihydroxybenzoic acid]	96.41 ± 0.03	4.6	–	–	439.7 ± 0.065	–	–
CCN(CCO)CCCC(C)Nc1ccnc2cc(Cl)ccc12 (stereo not shown) [Hydroxychloroquine]	–	–	–	32.8	–	10.85	356
COc1cc2ccc(=O)oc2cc1O [Scopoletin, 7-hydroxy-6-methoxycoumarin]	17.8 ± 0.91	14.22	–	–	253.1 ± 0.45	–	–
COc1c(O)cc2oc(=O)ccc2c1OC [Umckalin, 7-hydroxy-5,6-dimethoxycoumarin]	311.6 ± 0.043	0.5	164.1 ± 0.54	–	–	–	–
